# Earlier results in US20120129178A1, “GENOMIC POLYMORPHISM FOR PREDICTING THERAPEUTIC RESPONSE” (University of Southern California, priority 1999, published 2012).
# Where two headings read alike, the source gives them in different places.
# Columns and labels:
# [1] = test system: patients with disseminated colon cancer; conditions: 46 patients with disseminated colon cancer; TS mRNA levels higher than 4.1
# [2] = test system: patients with gastric cancer; conditions: gastric cancer patients treated with 5-Fu
smiles,measurement,setting,value
"O=c1[nH]cc(F)c(=O)[nH]1 [5-FU, 5-Fluorouracil]",response to 5-FU based treatment,[1],No patient with TS mRNA levels higher than 4.1 responded to treatment
same,median survival,[2]; TS mRNA levels >4.6,6 months
same,median survival,[2]; TS mRNA levels of 54.6 (so in the source),≥ 43 months
